Measured values taken from ChEMBL document CHEMBL1201862, “PubChem BioAssay data set” (2004).
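Five compound concentrations were applied to cells in 96-well plates for 48 hours; endpoints were derived by simple linear interpolation of the resulting dose-response curve. GI50 marks 50% less growth.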 Active and inactive are the calls of the source. No stated cut-off is given here; in the data, active = GI50 up to about 1.1 µM and inactive = higher.

Tests used:
Assay in all cases: NCI tumour cell line growth inhibition, 48 h
HOP-62 = tested on: HOP-62
LOX IMVI = tested on: LOX IMVI
SW-620 = tested on: SW-620
786-0 = tested on: 786-0
CCRF-CEM = tested on: CCRF-CEM
A549 = tested on: A549
T47D = tested on: T47D
SNB-19 = tested on: SNB-19
SR = tested on: SR
U-251 = tested on: U-251
NCI-H522 = tested on: NCI-H522
OVCAR-3 = tested on: OVCAR-3
SK-MEL-5 = tested on: SK-MEL-5
NCI-H226 = tested on: NCI-H226
NCI/ADR-RES = tested on: NCI/ADR-RES
HCT-15 = tested on: HCT-15
OVCAR-4 = tested on: OVCAR-4
RXF 393 = tested on: RXF 393
OVCAR-5 = tested on: OVCAR-5
CAKI-1 = tested on: CAKI-1

SMILES | GI50 (HOP-62) | GI50 (LOX IMVI) | GI50 (SW-620) | GI50 (786-0) | GI50 (CCRF-CEM) | GI50 (A549) | GI50 (T47D) | GI50 (SNB-19) | GI50 (SR) | GI50 (U-251) | GI50 (NCI-H522) | GI50 (OVCAR-3) | GI50 (SK-MEL-5) | GI50 (NCI-H226) | GI50 (NCI/ADR-RES) | GI50 (HCT-15) | GI50 (OVCAR-4) | GI50 (RXF 393) | GI50 (OVCAR-5) | GI50 (CAKI-1)
CC(=O)SC(C[N+](=O)[O-])c1ccccc1 (stereo not given) | 15.3 µM (inactive) | 1.65 µM (inactive) | 2.18 µM (inactive) | 3.95 µM (inactive) | 2.84 µM (inactive) | 3.82 µM (inactive) | 10.4 µM (inactive) | 11.9 µM (inactive) | 2.22 µM (inactive) | 3.79 µM (inactive) | 16.4 µM (inactive) | 5.37 µM (inactive) | 2.68 µM (inactive) | 2.59 µM (inactive) | 20.1 µM (inactive) | 2.21 µM | 1.76 µM (inactive) | 2.1 µM (inactive) | 3.8 µM (inactive) | 14 µM (inactive)
CCOP(=O)(OCC)OC1c2[nH]cc(C(=O)OCc3ccccc3)c2-c2cc(C(=O)OC)[nH]c2C1OC (stereo not given) | 7.76 µM (inactive) | 4.56 µM (inactive) | 14.5 µM (inactive) | 7.76 µM (inactive) | > 24.8 µM (inactive) | 5.85 µM (inactive) | 7.91 µM (inactive) | 14.7 µM (inactive) | 7.6 µM (inactive) | 11.4 µM (inactive) | 6.53 µM (inactive) | 11.2 µM (inactive) | 7.46 µM (inactive) | 16.1 µM (inactive) | 7.53 µM (inactive) | 3.25 µM | 6.15 µM (inactive) | 8.18 µM (inactive) | 37 µM (inactive) | 20.2 µM (inactive)
